Key:
[1] = test system: Human gastric cancer cells (MKN-45); experiment: Inhibitory activity against the proliferation of human gastric cancer cells (MKN-45); assay type: cell-based; conditions: 72 h, MKN-45, 1% FBS RPMI1640, 3 days, Cell Counting Kit-8
How it was run: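 MKN-45 cells seeded overnight in RPMI1640 with 1% FBS, then exposed to compound for 3 days at 37° C, 5% CO2. Viability read with CCK-8 after about 1.5 hrs, absorbance at 450 nm (reference 660 nm).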

[2] = target: T1, His6-HGFR (HGFR cytoplasmic domain) (Homo sapiens, UniProt P08581); experiment: Inhibitory activity against HGFR tyrosine kinase activity (HTRF); assay type: biochemical; conditions: biotin-poly(GT), ATP, 30° C. 10 min
T1 construct: made in house; host or cells: Sf9 insect cells (Spodoptera frugiperda), baculovirus, pFastBac-HT vector
T1 sequence (P08581 956-1390 limits assumed): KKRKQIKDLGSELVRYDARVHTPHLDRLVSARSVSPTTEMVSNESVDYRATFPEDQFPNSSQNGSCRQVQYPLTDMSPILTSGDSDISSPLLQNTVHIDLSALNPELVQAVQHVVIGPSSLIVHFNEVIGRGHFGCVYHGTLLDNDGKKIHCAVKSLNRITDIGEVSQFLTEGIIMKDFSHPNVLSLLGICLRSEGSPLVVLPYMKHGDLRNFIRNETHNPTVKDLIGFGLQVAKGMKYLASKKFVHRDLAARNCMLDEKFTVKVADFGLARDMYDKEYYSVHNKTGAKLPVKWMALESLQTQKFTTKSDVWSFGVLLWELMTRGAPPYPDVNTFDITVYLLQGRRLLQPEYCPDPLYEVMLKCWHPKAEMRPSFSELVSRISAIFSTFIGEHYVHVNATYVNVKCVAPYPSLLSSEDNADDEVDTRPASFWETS
From the text: The cytoplasmic domain of HGFR (Genbank Accession No. J02958) is a 1.3 kb DNA fragment beginning with Lys974 and including a stop codon, and described by Park et al. (Proc. Natl. Acad. Sci. U.S.A. 84(18), 6379-6383, 1987). The DNA fragment was isolated from the human placental cDNA library (purchased from Clontech) by PCR (TaKaRa Ex Taq™ Kit, purchased from TaKaRa) using two kinds of primers (SEQ ID NO: 1,5′-[…]-3′ and SEQ ID NO: 2,5′-[…]-3′, purchased from Invitrogen). The DNA fragment was cloned into a baculovirus transplace vector (pFastBac™-HT (purchased from GIBCO BRL)) to produce a recombinant construct. […] EGFR was purchased from Sigma (Production No. E-2645).
To the suspension of Sf9 cells (3×10^8 cells) in SF-900II medium (purchased from Invitrogen) containing 2% FBS was added a solution of HGFR transfected baculovirus above (4 ml), followed by a shaking culture at 27° C. for 48 hrs. The cells infected with the HGFR transfected baculovirus were centrifuged at 1,000 rpm, 4° C. for 5 min to remove the supernatant. The precipitated infected cells were suspended in 80 ml of ice-cold PBS, and centrifuged at 1,000 rpm, 4° C. for 5 min to remove the supernatant. The precipitated infected cells were suspended in 40 ml of ice-cold Lysis Buffer (50 mM Tris-HCl (pH 8.5), 5 mM 2-mercaptoethanol, 100 mM KCl, 1 mM PMSF and 1% (v/v) NP-40). The suspension was centrifuged at 12,000 rpm, 4° C. for 30 min to provide a supernatant.
The supernatant was loaded onto an Ni-NTA agarose column (3 ml, purchased from Qiagen) equilibrated with 30 ml of Buffer A (20 mM Tris-HCl (pH 8.5), 5 mM 2-mercaptoethanol, 500 mM KCl, 20 mM imidazole and 10% (v/v) glycerol). The column was washed with 30 ml of Buffer A, 6 ml of Buffer B (20 mM Tris-HCl (pH 8.5), 5 mM 2-mercaptoethanol, 1 M KCl, and 10% (v/v) glycerol) and 6 ml of Buffer A in this order. Then, the column was eluted with 6 ml of Buffer C (20 mM Tris-HCl (pH 8.5), 5 mM 2-mercaptoethanol, 100 mM KCl, 100 mM imidazole, and 10% (v/v) glycerol) to provide a fraction. The fraction was entrapped in a dialysis membrane (purchased from Spectrum Laboratories), dialyzed at 4° C. overnight with 1 L of dialysis buffer (20 mM Tris-HCl (pH 7.5), 10% (v/v) glycerol, 1 mM dithiothreitol, 0.1 mM Na3VO4 and 0.1 mM EGTA), and stored at −80° C. until used. […] The VEGFR2 cytoplasmic domain, the FGFR1 cytoplasmic domain, and the PDGFRβ cytoplasmic domain were fused with six histidine at the N terminus by the similar method to produce respective recombinant proteins (His6-VEGFR2, His6-FGFR1, and His6-PDGFRβ).
To each well of a 96-well round plate (purchased from NUNC, Production No. 163320) were added 10 μl of a solution for kinase reaction (200 mM Hepes (pH 7.4), 80 mM MgCl2, 16 mM MnCl2 and 2 mM Na3VO4), 250 ng of biotinylated poly(Glu4: Tyr1) (biotin-poly(GT), purchased from Japan Schering) (6 μl, 15-fold diluted with distilled water), 30 ng of His6-HGFR (10 μl, 60-fold diluted with 0.4% BSA) and a test substance dissolved in dimethylsulfoxide (4 μl, 100-fold diluted with 0.1% BSA) to mess up to 30 μl. To the well was added 10 μl of 4 μM ATP (purchased from Sigma) diluted with distilled water to incubate at 30° C. for 10 min, followed by adding 10 μl of 500 mM EDTA (pH 8.0) (purchased from Wako Pure Chemicals) to provide a kinase reaction solution.
The tyrosine-phosphorylated biotin-poly(GT) was detected using the Homogenous Time-Resolved Fluorescence (HTRF) method (Analytical Biochemistry, 269, 94-104, 1999).

IC50 [1] | IC50 [2] | Structure (SMILES)
54 nM | 19 nM | O=C(Nc1cc(Oc2ccc(NC(=O)C3(C(=O)Nc4ccc(F)cc4)CC3)cc2)ccn1)N1CCC1 [Example 70, N-[4-({2-[(Azetidin-1-ylcarbonyl)amino]pyridin-4-yl}oxy)phenyl]-N′-(4-fluorophenyl)cyclopropane-1,1-dicarboxamide]
16 nM | 72 nM | CN1CCN(C2CCN(C(=O)Nc3cc(Oc4cc(F)c(NC(=O)C5(C(=O)Nc6ccc(F)cc6)CC5)cc4F)ncn3)CC2)CC1 [Example 101, N-(2,5-Difluoro-4-{[4-({[4-(4-methylpiperazin-1-yl)piperidin-1-yl]carbonyl}amino)pyrimidin-6-yl]oxy}phenyl)-N′-(4-fluorophenyl)cyclopropane-1,1-dicarboxamide]
21 nM | 61 nM | CN(C)CC1CN(C(=O)Nc2cc(Oc3ccc(NC(=O)C4(C(=O)Nc5ccc(F)cc5)CC4)c(F)c3F)ccn2)C1 [Example 107, N-[4-({2-[({3-[(Dimethylamino)methyl]azetidine-1-yl}carbonyl)amino]pyridin-4-yl}oxy)-2,3-difluorophenyl]-N′-(4-fluorophenyl)cyclopropane-1,1-dicarboxamide]
57 nM | 58 nM | CN1CCN(C(=O)Nc2cc(Oc3ccc(NC(=O)C4(C(=O)Nc5ccc(F)cc5)CC4)c(F)c3)ccn2)CC1 [Example 64, N-{2-Fluoro-4-[(2-{[(1-methylpiperazin-4-yl)carbonyl]amino}pyridin-4-yl)oxy]phenyl}-N′-(4-fluorophenyl)cyclopropane-1,1-dicarboxamide]
15 nM | 14 nM | COC1CN(C(=O)Nc2cc(Oc3ccc(NC(=O)C4(C(=O)Nc5ccc(F)cc5)CC4)cc3F)ccn2)C1 [Example 79]

The next lines start with the molecule.

Structure (SMILES) | IC50 [1] | IC50 [2]
O=C(Nc1cc(Oc2ccc(NC(=O)C3(C(=O)Nc4ccc(F)cc4)CC3)cc2F)ncn1)N1CCOCC1 [Example 35, N-[3-Fluoro-4-({6-{(morpholin-4-ylcarbonyl)amino}pyrimidin-4-yl}oxy)phenyl]-N′-(4-fluorophenyl)cyclopropane-1,1-dicarboxamide] | 230 nM | 29 nM
CN1CCN(C2CCN(C(=O)Nc3cc(Oc4ccc(NC(=O)C5(C(=O)Nc6ccc(F)cc6)CC5)cc4)ccn3)CC2)CC1 [Example 32, N-(4-Fluorophenyl)-N′-(4-{[2-({[4-(4-methylpiperazin-1-yl)piperidin-1-yl]carbonyl}amino)pyridin-4-yl]oxy}phenyl)cyclopropane-1,1-dicarboxamide] | 27 nM | 50 nM
O=C(Nc1cc(Oc2ccc(NC(=O)C3(C(=O)Nc4ccc(F)cc4)CC3)c(F)c2)ccn1)N1CCC(CN2CCC2)CC1 [Example 37, N-(4-{[2-({[4-(Azetidin-1-ylmethyl)piperidin-1-yl]carbonyl}amino)pyridin-4-yl]oxy}-2-fluorophenyl)-N′-(4-fluorophenyl)cyclopropane-1,1-dicarboxamide] | 14 nM | 53 nM
CN(C)C1CN(C2CCN(C(=O)Nc3cc(Oc4ccc(NC(=O)C5(C(=O)Nc6ccccc6)CC5)c(F)c4)ccn3)CC2)C1 [Example 55] | 43 nM | 120 nM
CN(C)CCN1CCC(N(C)C(=O)Nc2cc(Oc3ccc(NC(=O)C4(C(=O)Nc5ccc(F)cc5)CC4)c(F)c3)ccn2)CC1 [Example 25, N-(4-{[2-({[{1-[2-(Dimethylamino)ethyl]piperidin-4-yl}(methyl)amino]carbonyl}amino)pyridin-4-yl]oxy}-2-fluorophenyl)-N′-(4-fluorophenyl)cyclopropane-1,1-dicarboxamide] | 19 nM | 85 nM
O=C(Nc1cc(Oc2ccc(NC(=O)C3(C(=O)Nc4ccc(F)cc4)CC3)cc2F)ccn1)N1CCC(N2CCCC2)CC1 [Example 10, N-(4-Fluorophenyl)-N′-{3-fluoro-4-[(2-{[(4-pyrrolidin-1-ylpiperidin-1-yl)carbonyl]amino}pyridin-4-yl)oxy]phenyl}cyclopropane-1,1-dicarboxamide] | 42 nM | 54 nM

From patent US7855290B2, “Pyridine derivatives and pyrimidine derivatives (3)” (Eisai R&D Management Co., Ltd., priority 2005, dated 2010)
